Data taken from patent US20210145816A1, “PHARMACEUTICAL FORMULATION OF LONAFARNIB WITH A SULFOBUTYLETHER BETA-CYCLODEXTRIN” (Cyclolab Cyclodextrin Research and Development Laboratory …, priority 2019, published 2021).
Converted amounts (≈) assume the structure as drawn.

Experiments:
[1] = water; cited from earlier work
[2] = 20% 2-hydroxypropyl beta cyclodextrin, lonafarnib 12 mg/ml; cited from earlier work
[3] = formulation of lonafarnib into a liquid vehicle with 2-hydroxypropyl beta cyclodextrin; type: physicochemical; settings: 20% 2-hydroxypropyl beta cyclodextrin, lonafarnib 12 mg/ml
Method: A prior publication describing formulation of lonafarnib into a liquid vehicle with a cyclodextrin is known (Hernandez et al., Science Translational Medicine, 11, eaat3005 (2019)), but based on the disclosed data, even using high concentration (20%) of 2-hydroxypropyl beta cyclodextrin (hydroxypropyl betadex), a suspension of lonafarnib was obtained for the (pre)clinically relevant concentration of the drug (12 mg/ml). […] Consequently, present invention provides a significant formulation improvement over the teachings of said journal publication.

For `NC(=O)N1CCC(CC(=O)N2CCC([C@H]3c4ncc(Br)cc4CCc4cc(Cl)cc(Br)c43)CC2)CC1` [Lonafarnib], the aqueous solubility [1] is listed as 0.8 µg/mL (≈ 1.25 µM), the “physical state of liquid formulation obtained (Hernandez et al. 2019)” value [2] is listed as “suspension” and the “physical state of liquid formulation obtained (experiment reproduced by Cyclolab Ltd.)” value [3] is listed as “rough suspension, unsuitable for parenteral application”.
